Data taken from patent US9878977B2, “N-((3,4,5-trimethoxystyryl)aryl)cinnamamide compounds as potential anticancer agents and process for the preparation thereof” (COUNCIL OF SCIENTIFIC & INDUSTRIAL RESEARCH, priority 2014, dated 2018).
Where two headings read alike, the source gives them in different places.

How the values were obtained:
[1] = test system: MCF-7; assay: SRB anti-proliferative assay, MCF-7; format: cell-based, Human; details: MCF7; Human breast cancer; concentration of drug causing 50% inhibition of cell growth; read-out: GI50 MCF-7
Protocol: (§1) The synthesized N-(3,4,5-trimethoxystyryl)aryl)cinnamamides were evaluated for their anti-proliferative activity in selected human cancer cell lines of breast cancer (MCF-7), prostate cancer (DU-145), lung cancer (Hop-62), cervical cancer (Hela), leukemia (K562), ovarian cancer (SK-OV-3), colon cancer (Colo-205), pancreatic (MAIPA-CA-2) by using sulforhodamine B (SRB) method (Vichai, V.; Kirtikara, K. Nat. Protoc. 2006, 1, 1112). […] CA-4 was used as the reference compound.

[2] = test system: K562; details: Human leukemia; data from NCI60 dose response (NSC 613729); cited from earlier work
[3] = test system: SK-OV-3; details: Human ovarian cancer; data from NCI60 dose response (NSC 613729); cited from earlier work
[4] = test system: Hela; assay: SRB anti-proliferative assay, Hela; format: cell-based, Human; details: Human cervical cancer, concentration of drug causing 50% inhibition of cell growth, read-out: GI50 Hela
Protocol: as §1

[5] = test system: Colo-205; assay: SRB anti-proliferative assay, Colo-205; format: cell-based, Human; details: COLO 205; Human colon cancer; concentration of drug causing 50% inhibition of cell growth; read-out: GI50 Colo-205
Protocol: as §1

[6] = test system: Hop-62; details: Human lung cancer; data from NCI60 dose response (NSC 613729); cited from earlier work
[7] = test system: DU-145; assay: SRB anti-proliferative assay, DU-145; format: cell-based, Human; details: DU-145; Human prostate cancer; concentration of drug causing 50% inhibition of cell growth; read-out: GI50 DU-145
Protocol: as §1

[8] = test system: MAIPA-CA-2; assay: SRB anti-proliferative assay, MAIPA-CA-2; format: cell-based, Human; details: Human pancreatic; concentration of drug causing 50% inhibition of cell growth; read-out: GI50 MAIPA-CA-2
Protocol: as §1

[9] = test system: SK-OV-3; assay: SRB anti-proliferative assay, SK-OV-3; format: cell-based, Human; details: SK-OV-3; Human ovarian cancer; concentration of drug causing 50% inhibition of cell growth; read-out: GI50 SK-OV-3
Protocol: as §1

[10] = test system: Hop-62; assay: SRB anti-proliferative assay, Hop-62; format: cell-based, Human; details: HOP-62; Human lung cancer; concentration of drug causing 50% inhibition of cell growth; read-out: GI50 Hop-62
Protocol: as §1

[11] = test system: K562; assay: SRB anti-proliferative assay, K562; format: cell-based, Human; details: K562; Human leukemia; concentration of drug causing 50% inhibition of cell growth; read-out: GI50 K562
Protocol: as §1

[12] = test system: tubulin; details: reported in J. Med. Chem. 2008, 51, 6211; cited from earlier work

In the case of `COc1ccc(/C=C\c2cc(OC)c(OC)c(OC)c2)cc1O` [CA-4, combretastatin A4, reference compound], the GI50 [1] is listed as 33 nM, the GI50 [2] is listed as 31 nM and the GI50 [3] is listed as 31600 nM. For the same molecule, the GI50 [4] was 8 nM, the GI50 [5] was 25 nM and the GI50 [6] was 150 nM. For the same molecule, the GI50 [7] was 46 nM.
Work on `COc1ccc(/C=C/C(=O)Nc2c(C=Cc3cc(OC)c(OC)c(OC)c3)ccc(OC)c2O)cc1N` [Compound 20z, (E)-3-(3-Amino-4-methoxyphenyl)-N-(2-hydroxy-3-methoxy-6-(3,4,5-trimethoxystyryl)phenyl)acrylamide] yielded a GI50 [1] of 50 nM, a GI50 [4] of 91 nM and a GI50 [8] of 14300 nM. The GI50 [5] was 89 nM, the GI50 [9] was 97 nM and the GI50 [10] was 44 nM. For the same molecule, the GI50 [7] was 79 nM and the GI50 [11] was 89 nM.
For `COc1cc(/C=C\c2ccc(OC)c(N)c2)cc(OC)c1` [Compound S3, (Z)-5-(3,5-dimethoxystyryl)-2-methoxyaniline], the “inhibits tubulin polymerization, compared with CA-4” value [12] is given as “stronger than CA-4 by five folds”.
